Test results from patent publication US20200054646A1, “USE OF PHENOTHIAZINE DERIVATIVE IN THE TREATMENT OF INFECTIOUS PURPURA OR PURPURA FULMINANS” (priority 2016, published 2020).

Legend:
[1] = system: N. meningitidis 2C4.3 bacterial aggregates; assay: microbe, parasite or virus in culture; type: cell-based, Neisseria meningitidis; conditions: for effect on dispersion of meningococcal aggregates (in words): 0.5 to 80 μM, 30 min; for Concentration promoting efficient meningococcal dispersal (~80%): 30 min treatment, 0.5 to 80 μM tested; for EC80: Neisseria meningitidis, 0.5 h, read-out: Concentration promoting efficient meningococcal dispersal (~80%)
Procedure: N. meningitidis 2C4.3 was grown in liquid culture at 10^7 CFU/ml for 2 h to form bacterial aggregates and were treated with increasing concentrations of Trifluoperazine (10 to 40 μM), Gentamicin (150 μg/ml) or cefotaxim (20 μg/ml) for 20 minutes and bacterial aggregates were immediately visualized using a phase-contrast microscope. […] (B) Quantification of the bacterial aggregation was performed using Image J software.
N. meningitidis 2C4.3 wild type strain and the isogenic derivative mutant PilT ([…]PilT) were grown in liquid culture at 10^7 CFU/ml for 2 h to form bacterial aggregates and then treated with 50 μM Trifluoperazine. Time lapse phase-contrast video microscopy was performed to visualize the effect on bacterial aggregates over time. Images were taken at the indicated time points of the video.
N. meningitidis 2C4.3 was grown in liquid culture at 10^7 CFU/ml for 2 h to form bacterial aggregates and were treated with 30 μM Trifluoperazine for 30 minutes to induce bacterial dispersion or PBS as a control. The medium was replaced to remove the Trifluoperazine and the reformation of bacterial aggregates were visualized overtime using a phase-contrast microscope.
FIG. 7. […] Bacteria were grown in suspension for 2 h then Phenothiazine derivatives were added at the indicated concentrations.
N. meninigitidis 2C4.3 strain was grown in suspension in wells of a 24 well plate, containing 1 ml of DMEM medium supplemented with 10% heat-inactivated fetal calf serum. After 2 h of growth, Trifluoperazine (or control vehicle) was added at various concentrations ranging from 10 to 40 μM for 20 min and the bacterial aggregates were visualized over time using a phase-contrast microscope.
N. meninigitidis 2C4.3 strain was grown in suspension in wells of a 24 well plate, containing 1 ml of DMEM medium supplemented with 10% heat-inactivated fetal calf serum. After 2 h of growth, various concentrations (0.5 to 80 μM) of phenothiazine-derivative compounds or control vehicle (PBS or DMSO) were added to the wells for 30 min and the bacterial aggregates were visualized using a phase-contrast microscope.
Were tested phenothiazine-derivative compounds of: • the Piperazine group: Trifluoperazine (Sigma #T8516), Fluphenazine (Sigma #F4765), Prochlorperazine (Sigma #P9178) Perphenazine (Sigma #P6402); • the Piperidine group: Thioridazine (Sigma #T9025) and Mesoridazin (Sigma #M4068); • the Aliphatic group: Chlorpromazine (Sigma #C8138), Promazine (Sigma #P6656), Triflupromazine (Sigma #1686003) and levomepromazine (Sigma #L0500000).

[2] = system: Nm2C4.3 microcolonies on HBMEC; assay: Dispersion of meningococcal microcolonies at the surface of infected human endothelial cells; type: cell-based, Neisseria meningitidis; conditions: Cefotaxim 20 μg/ml
Procedure: Human […] microvascular endothelial cells (HBMEC) were infected with Nm2C4.3 for 1 h 30, treated with Trifluoperazine (10-40 μM) for 30 minutes, before fixation and immunofluorescence analysis using anti-Nm2C4.3 antibody and Alexa Fluor 633 Phalloidin. (A) Representative fluorescence microscopy showing bacterial colony (white dots) formed at the surface of the endothelial cells. (B) Quantification of the bacterial colonization was performed using Image J software.
HBMEC, a human endothelial cell line isolated from bone marrow capillaries (Schweitzer et al., 1997) were grown in Dulbecco's Modified Eagle Medium (DMEM) 4.5 g/L-Glutamax (ThermoFischer) 10% FBS. Cells were grown on Thermanox coverslips coated with gelatin 2% (BD Difco #214340) for 2 days to reach confluency. Cells were then infected with a suspension of Nm2C4.3 (˜10^7 CFU/ml) in DMEM/FBS during 30 minutes to allow bacterial adhesion. Cells were then washed three times with medium to remove non-adherent bacteria and infection was pursued for 1 h 30: adherent bacteria grew at the endothelial cell surface and formed micro-colonies. Trifluoperazine was then added to obtain final concentrations of 10, 20, 30 and 40 μM. After incubation for 30 minutes, cells were washed and fixed in 4% Paraformaldehyde for 10 min, washed three times with PBS, and permeabilized with 0.1% Triton X-100 in PBS for 10 min. Cells were blocked for 30 min with 3% BSA in PBS and were incubated for 2 h with the primary antibodies (Rabbit polyclonal anti-Nm2C4.3 strain, kindly provided by Dr X. Nassif, INEM, Paris). After three washes with PBS, cells were incubated for 1 h with […] anti-rabbit IgG (Jackson ImmunoResearch Laboratories), together with Alexa Fluor 633 Phalloidin (Thermofischer) and DAPI (0.5 mg ml-1, Sigma Aldrich) to stain Actin and nuclei, respectively. Labelled preparations were mounted in Glycergel media (DAKO) and image acquisitions were performed with a DM16000 microscope (Leica, X40). Quantification was done with ImageJ software (NIH). Results are presented as a vascular colonisation index corresponding to the area occupied by the fluorescently labelled bacteria per fields in relation to the area occupied by the fluorescently labelled human endothelial cells (Actin staining). Statistical analysis were performed with Student t test.

[3] = system: meningococcal colonization of the human dermal vasculature; assay: In vivo infection of mice engrafted with human skin; conditions: cefotaxime treatment

Compound | effect on dispersion of meningococcal aggregates (in words) [1] | Concentration promoting efficient meningococcal dispersal (~80%) [1] | EC80 [1] [µM] | further results
CN(C)CCCN1c2ccccc2Sc2ccc(C(F)(F)F)cc21 [Triflupromazine] | no effects | No effect | – | –
CSc1ccc2c(c1)N(CCC1CCCCN1C)c1ccccc1S2 (stereo not shown) [Thioridazine] | – | – | 4 | –
CO/N=C(\C(=O)N[C@@H]1C(=O)N2C(C(=O)O)=C(COC(C)=O)CS[C@H]12)c1csc(N)n1 [Cefotaxim] | – | – | – | dispersion of bacterial aggregates formed in suspension ([1]; Cefotaxim 20 μg/ml, 20 minutes): did not significantly induce the dispersion; dispersion of microcolonies at the endothelial cell surface [2]: poorly induced the dispersion; increase of inflammatory response [3]: 2 fold
OCCN1CCN(CCCN2c3ccccc3Sc3ccc(C(F)(F)F)cc32)CC1 [Fluphenazine] | – | – | 40 | –
COc1ccc2c(c1)N(C[C@H](C)CN(C)C)c1ccccc1S2 [Levomepromazine] | no effects | No effect | – | –
OCCN1CCN(CCCN2c3ccccc3Sc3ccc(Cl)cc32)CC1 [Perphenazine] | – | – | 40 | –
CN1CCCCC1CCN1c2ccccc2Sc2ccc([S+](C)[O-])cc21 (stereo not shown) [Mesoridazine] | – | – | 6 | –
CN(C)CCCN1c2ccccc2Sc2ccccc21 [Promazine] | inhibited bacterial aggregation with better efficacy than Trifluoperazine | – | 10 | –
CN(C)CCCN1c2ccccc2Sc2ccc(Cl)cc21 [Chlorpromazine] | no effects | No effect | – | –
CN1CCN(CCCN2c3ccccc3Sc3ccc(Cl)cc32)CC1 [Prochlorperazine] | – | – | 30 | –
